Assays:
db/db mice = conditions: Guri et al., cited from earlier work
E-selectin = test: Aortic gene expression by real-time RT-PCR: E-selectin; assay type: in vivo, mice; conditions: P=0.20
Method: (§1) FIG. 6 are graphs showing that ABA decreases immune cell infiltration in aortas of ApoE−/− mice and reduces pro-inflammatory gene expression. ApoE −/− mice were fed high fat diets created with or without 100 mg/kg diet racemic abscisic acid (ABA). (A) Infiltration of F4/80^+CD11b^+ macrophages and CD4^+ T-cells into the aorta were assessed with flow cytometry. Gene expression in the aorta of pro-inflammatory markers (B) vascular cell adhesion molecule 1 (VCAM-1), (C) monocyte chemoattractant protein 1 (MCP-1), (D) E-selectin, (F) peroxisome proliferator-activated receptor γ (PPAR γ), and (G) CD36 were measured as a ratio to the housekeeping gene β-actin. (H) MCP-1 protein concentrations (pg/mL) were measured by ELISA. Data were analyzed as a completely randomized design.
(§2) Total RNA was isolated from aortas using the RNA isolation Minikit (Qiagen) according to the manufacturer's instructions. […] Each gene amplicon was purified with the MiniElute PCR Purification Kit (Qiagen) and quantitated on an agarose gel by using a DNA mass ladder (Promega). […]
(§3) Complementary DNA (cDNA) concentrations for genes of interest were examined by real-time quantitative PCR using an iCycler IQ System and the iQ SYBR green supermix (Bio-Rad). […] Results are presented as a starting quantity of target cDNA (picograms) per microgram of total RNA. […]

[1] = tested on: endothelial nitric oxide synthase (eNOS); test: Aortic gene expression by real-time RT-PCR: eNOS; assay type: in vivo, mice; conditions: day 84, ratio to β-actin
Method: FIG. 4 are photos and graphs showing aortas collected on day 84 of dietary intervention. Representative photomicrographs (100×) of aortic root specimens from (A) control and (B) ABA-fed mice. (C) Analysis of lumenal areas and (D) tunica media areas were performed with aortic cross-sections using Image Pro Plus software. (E) Aortic thickness was analyzed as a ratio of the intima to the media. Gene expression in the aorta of (F) endothelial nitric oxide synthase (eNOS) and (G) 15-lipoxygenase (15-LOX) were measured as a ratio to the house-keeping gene β-actin. Data were analyzed as a completely randomized design.
as §2, with “instructions. Total RNA (1 μg) was used to generate a complementary DNA (cDNA) template using the iScript cDNA Synthesis Kit (Bio-Rad, Hercules, Calif.).” for “instructions.”
as §3

eNOS = eNOS mRNA expression in HAECs by real time PCR; assay type: cell-based, human; conditions: 10 μM ABA, 24 hours, P<0.02
[2] = FPLC separation of plasma lipoproteins; assay type: in vivo; conditions: ApoE-deficient mice, FIG. 2
Method: (§4) FIG. 2 is a graph showing fast performance liquid chromatography (FPLC) separation of plasma lipoproteins performed on a Superose 6 column using buffer containing 0.15M NaCl, 0.01M Na2HPO4 and 1 mM EDTA at a flow rate of 0.5 ml/min. Forty 0.5 ml fractions were collected and cholesterol was measured in fractions 10-40. Fractions 15-20 contain VLDL, fractions 21-27 contain LDL and fractions 28-34 contain HDL.
as §4, with “Plasma cholesterol and triglyceride levels were measured using kits from Raichem (San Diego, Calif.) adapted for microtiter plate assays. Plasma free fatty acids were measured using the NEFA-HR(2) kit from Wako. Fast” for “FIG. 2 is a graph showing fast”, “lipoproteins was” for “lipoproteins”

MCP-1 = MCP-1 concentrations in plasma by ELISA; assay type: in vivo, mice; conditions: P=0.10
Method: as §1
A Ready-set-go MCP-1 ELISA (ebioscience) was used to quantify plasma MCP-1 according to the manufacturer's instructions.

## CC1=CC(=O)CC(C)(C)C1(O)/C=C/C(C)=C\C(=O)O (racemic) [ABA, abscisic acid]
db/db mice; db/db mice, 2007 and 2008
  Glucose tolerance: improved glucose tolerance
db/db mice; obese db/db mice, 2008
  Macrophage infiltration into white adipose tissue: significantly reduces macrophage infiltration
  Reduction in MCP-1 expression in the adipose tissue stromal-vascular fraction: approximately 15 fold
E-selectin
  E-selectin mRNA expression in the aortic roots vs control: reduced, though not to statistical significance
[1]
  Aortic expression of eNOS mRNA vs control: significantly elevated
eNOS
  eNOS mRNA levels vs vehicle: significantly (P<0.02) increased
[2]
  FPLC lipoprotein cholesterol profile vs control diet: slight shift in the profiles to lower VLDL and higher LDL and HDL
MCP-1
  Plasma MCP-1 concentrations vs control: decreased
